The record followed here is patent US20230116114A1, “COMPOUNDS AND COMPOSITIONS FOR TREATING CNS DISORDERS” (Blue Oak Pharmaceuticals, Inc., priority 2020, published 2023).

As usually defined, the minimal effective dose is the lowest level tested that produced the effect sought.

Counter-ions that a name gives are not always drawn.

In this experiment the test system is mice. Briefly: SmartCube in vivo neuropharmacological behavioral assay. The conditions noted are these: for minimal effective dose: Mus musculus, ip, 0.25 h, dose having 50% or more total activity in SmartCube, i.p., read-out: MED (minimal effective dose); for AD: antidepressant (percent probability) / AG: analgesic (percent probability) / AP: antipsychotic (percent probability) / AX: anxiolytic (percent probability) / CE: cognitive enhancer (percent probability) / HA: hallucinogenic (percent probability) / MS: mood stabilizer (percent probability) / PS (percent probability) / SD: sedative hypnotic (percent probability) / SE: side effects (percent probability) / UN: uncharacterized CNS activity (percent probability) / XG: anxiogenic (percent probability): SmartCube, i.p. 15 min before test, result at the MED. In short, it runs like this: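 Mice dosed i.p. in NMP (Pharmasolve) 15 min before automated video behavioral testing at several doses (e.g., 0.3-30 mpk). Signatures compared to reference drug classes giving per-class probabilities (0-100); MED is the lowest dose with ≥50% total activity.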

Turning to `CC1CC2c3ccccc3C(C1)N2C1CC1` (stereo not drawn) [Compound 38, 12-azatricyclo[6.3.1.0^2,7]dodeca-2,4,6-trien-10-yl}methylium hydrochloride], the minimal effective dose lay in the range of 10 to 30 mg/kg, the “AD: antidepressant (percent probability)” value is “++++ (50% ≤ X < 100%)”, the “AG: analgesic (percent probability)” value is given as “+ (LOQ ≤ X < 5%)” and the “AP: antipsychotic (percent probability)” value is given as “+ (LOQ ≤ X < 5%)”. Further, the “AX: anxiolytic (percent probability)” value was “+ (LOQ ≤ X < 5%)”, the “CE: cognitive enhancer (percent probability)” value is “++ (5% ≤ X < 25%)”, the “HA: hallucinogenic (percent probability)” value was “++ (5% ≤ X < 25%)” and the “MS: mood stabilizer (percent probability)” value (from here on “MS … (percent probability)”) was “+ (LOQ ≤ X < 5%)”. In addition, the “PS (percent probability)” value is on record as “+ (LOQ ≤ X < 5%)”, the “SD: sedative hypnotic (percent probability)” value (“SD … (percent probability)” for short) is “+ (LOQ ≤ X < 5%)”, the “SE: side effects (percent probability)” value is given as “+ (LOQ ≤ X < 5%)” and the “UN: uncharacterized CNS activity (percent probability)” value (“UN … (percent probability)” for short) is “+ (LOQ ≤ X < 5%)”. For the same molecule, the “XG: anxiogenic (percent probability)” value was “+ (LOQ ≤ X < 5%)”.
`CC(C)N1C2CCC(O)C1c1ccccc12` (stereo not drawn) [Compound 27, 12-(propan-2-yl)-12-azatricyclo[6.3.1.0^2,7]dodeca-2,4,6-trien-9-ol hydrochloride]: the minimal effective dose was 10 to 30 mg/kg, the “AD: antidepressant (percent probability)” value is “+++ (25% ≤ X < 50%)”, the “AG: analgesic (percent probability)” value is on record as “++ (5% ≤ X < 25%)” and the “AP: antipsychotic (percent probability)” value is “+ (LOQ ≤ X < 5%)”. In addition, the “AX: anxiolytic (percent probability)” value is listed as “++ (5% ≤ X < 25%)”, the “CE: cognitive enhancer (percent probability)” value is given as “+ (LOQ ≤ X < 5%)”, the “HA: hallucinogenic (percent probability)” value is “++ (5% ≤ X < 25%)” and the “MS … (percent probability)” value is on record as “+ (LOQ ≤ X < 5%)”. Moreover, the “PS (percent probability)” value is on record as “++ (5% ≤ X < 25%)”, the “SD … (percent probability)” value is listed as “+ (LOQ ≤ X < 5%)”, the “SE: side effects (percent probability)” value is given as “+ (LOQ ≤ X < 5%)” and the “UN … (percent probability)” value was “+ (LOQ ≤ X < 5%)”. The “XG: anxiogenic (percent probability)” value was “+ (LOQ ≤ X < 5%)”.
As for `CC([C@H](C)F)N1C2CCCC1c1ccccc12` (stereo in doubt) [Compound 24, 12-(3-Fluorobutan-2-yl)-12-azatricyclo[6.3.1.0^2,7]dodeca-2,4,6-triene hydrochloride], the minimal effective dose fell in the range of 10 to 30 mg/kg, the “AD: antidepressant (percent probability)” value is recorded as “+++ (25% ≤ X < 50%)”, the “AG: analgesic (percent probability)” value was “+ (LOQ ≤ X < 5%)” and the “AP: antipsychotic (percent probability)” value is listed as “+ (LOQ ≤ X < 5%)”. In addition, the “AX: anxiolytic (percent probability)” value is on record as “+ (LOQ ≤ X < 5%)”, the “CE: cognitive enhancer (percent probability)” value is “+ (LOQ ≤ X < 5%)”, the “HA: hallucinogenic (percent probability)” value is given as “+ (LOQ ≤ X < 5%)” and the “MS … (percent probability)” value is listed as “+ (LOQ ≤ X < 5%)”. Also, the “PS (percent probability)” value was “++ (5% ≤ X < 25%)”, the “SD … (percent probability)” value is “+ (LOQ ≤ X < 5%)”, the “SE: side effects (percent probability)” value is “+ (LOQ ≤ X < 5%)” and the “UN … (percent probability)” value is given as “+ (LOQ ≤ X < 5%)”. Besides, the “XG: anxiogenic (percent probability)” value is on record as “+ (LOQ ≤ X < 5%)”.
For `FCC(CF)N1C2CCCC1c1ccccc12` [Compound 14, 12-(1,3-Difluoropropan-2-yl)-12-azatricyclo[6.3.1.0^20.7]dodeca-2,4,6-triene hydrochloride], the minimal effective dose was in the range of 10 to 30 mg/kg, the “AD: antidepressant (percent probability)” value is reported as “++ (5% ≤ X < 25%)”, the “AG: analgesic (percent probability)” value is “+++ (25% ≤ X < 50%)” and the “AP: antipsychotic (percent probability)” value is given as “+ (LOQ ≤ X < 5%)”. The “AX: anxiolytic (percent probability)” value is “++ (5% ≤ X < 25%)”, the “CE: cognitive enhancer (percent probability)” value was “+ (LOQ ≤ X < 5%)”, the “HA: hallucinogenic (percent probability)” value was “+ (LOQ ≤ X < 5%)” and the “MS … (percent probability)” value is recorded as “+ (LOQ ≤ X < 5%)”. Further, the “PS (percent probability)” value is given as “+ (LOQ ≤ X < 5%)”, the “SD … (percent probability)” value is on record as “+ (LOQ ≤ X < 5%)”, the “SE: side effects (percent probability)” value was “+ (LOQ ≤ X < 5%)” and the “UN … (percent probability)” value was “+ (LOQ ≤ X < 5%)”. The “XG: anxiogenic (percent probability)” value is “+ (LOQ ≤ X < 5%)”.
With `Fc1cc2c(cc1F)C1CCCC2N1` [Compound 40, 4,5-Difluoro-12-azatricyclo[6.3.1.0^2,7]dodeca-2,4,6-triene hydrochloride], the minimal effective dose was above 30 mg/kg, the “AD: antidepressant (percent probability)” value is recorded as “++ (5% ≤ X < 25%)”, the “AG: analgesic (percent probability)” value was “++ (5% ≤ X < 25%)” and the “AP: antipsychotic (percent probability)” value is listed as “+ (LOQ ≤ X < 5%)”. The “AX: anxiolytic (percent probability)” value is reported as “++ (5% ≤ X < 25%)”, the “CE: cognitive enhancer (percent probability)” value is recorded as “+ (LOQ ≤ X < 5%)”, the “HA: hallucinogenic (percent probability)” value is listed as “+ (LOQ ≤ X < 5%)” and the “MS … (percent probability)” value is “+ (LOQ ≤ X < 5%)”. In addition, the “PS (percent probability)” value is “++ (5% ≤ X < 25%)”, the “SD … (percent probability)” value is reported as “+ (LOQ ≤ X < 5%)”, the “SE: side effects (percent probability)” value is “+ (LOQ ≤ X < 5%)” and the “UN … (percent probability)” value was “+ (LOQ ≤ X < 5%)”. Also, the “XG: anxiogenic (percent probability)” value was “+ (LOQ ≤ X < 5%)”.
As to `CC(C)N1C2CCCC1c1cc(F)c(F)cc12` [Compound 41, 4,5-Difluoro-12-(propan-2-yl)-12-azatricyclo[6.3.1.0^2,7]dodeca-2,4,6-triene], the minimal effective dose lay within 10 to 30 mg/kg, the “AD: antidepressant (percent probability)” value is “++ (5% ≤ X < 25%)”, the “AG: analgesic (percent probability)” value is recorded as “++ (5% ≤ X < 25%)” and the “AP: antipsychotic (percent probability)” value is given as “++ (5% ≤ X < 25%)”. For the same molecule, the “AX: anxiolytic (percent probability)” value was “++ (5% ≤ X < 25%)”, the “CE: cognitive enhancer (percent probability)” value is listed as “++ (5% ≤ X < 25%)”, the “HA: hallucinogenic (percent probability)” value is given as “+ (LOQ ≤ X < 5%)” and the “MS … (percent probability)” value is recorded as “+ (LOQ ≤ X < 5%)”. Further, the “PS (percent probability)” value was “+ (LOQ ≤ X < 5%)”, the “SD … (percent probability)” value is “+ (LOQ ≤ X < 5%)”, the “SE: side effects (percent probability)” value is “+ (LOQ ≤ X < 5%)” and the “UN … (percent probability)” value is on record as “+++ (25% ≤ X < 50%)”. In addition, the “XG: anxiogenic (percent probability)” value is on record as “+ (LOQ ≤ X < 5%)”.
Regarding `c1ccc2c(c1)C1CCCC2N1C1CCCC1` [Compound 4, 12-Cyclopentyl-12-azatricyclo[6.3.1.0^2,7]dodeca-2,4,6-triene hydrochloride], the minimal effective dose lay in the range of 1 to 10 mg/kg, the “AD: antidepressant (percent probability)” value was “+++ (25% ≤ X < 50%)”, the “AG: analgesic (percent probability)” value was “++ (5% ≤ X < 25%)” and the “AP: antipsychotic (percent probability)” value is “+ (LOQ ≤ X < 5%)”. Also, the “AX: anxiolytic (percent probability)” value was “++ (5% ≤ X < 25%)”, the “CE: cognitive enhancer (percent probability)” value is given as “+ (LOQ ≤ X < 5%)”, the “HA: hallucinogenic (percent probability)” value was “+ (LOQ ≤ X < 5%)” and the “MS … (percent probability)” value was “+ (LOQ ≤ X < 5%)”. In addition, the “PS (percent probability)” value is on record as “++ (5% ≤ X < 25%)”, the “SD … (percent probability)” value is “+ (LOQ ≤ X < 5%)”, the “SE: side effects (percent probability)” value is reported as “+ (LOQ ≤ X < 5%)” and the “UN … (percent probability)” value is recorded as “+ (LOQ ≤ X < 5%)”. In addition, the “XG: anxiogenic (percent probability)” value was “+ (LOQ ≤ X < 5%)”.
Consider `c1ccc(CCN2C3CCCC2c2ccccc23)cc1` [Compound 5, 12-(2-Phenylethyl)-12-azatricyclo[6.3.1.0^2,7]dodeca-2,4,6-triene], for which the minimal effective dose is 10 to 30 mg/kg, the “AD: antidepressant (percent probability)” value was “++ (5% ≤ X < 25%)”, the “AG: analgesic (percent probability)” value is “+ (LOQ ≤ X < 5%)” and the “AP: antipsychotic (percent probability)” value was “++ (5% ≤ X < 25%)”. For the same molecule, the “AX: anxiolytic (percent probability)” value is recorded as “++ (5% ≤ X < 25%)”, the “CE: cognitive enhancer (percent probability)” value is “+ (LOQ ≤ X < 5%)”, the “HA: hallucinogenic (percent probability)” value is reported as “+ (LOQ ≤ X < 5%)” and the “MS … (percent probability)” value is listed as “+ (LOQ ≤ X < 5%)”. The “PS (percent probability)” value is reported as “+ (LOQ ≤ X < 5%)”, the “SD … (percent probability)” value was “+ (LOQ ≤ X < 5%)”, the “SE: side effects (percent probability)” value is “+ (LOQ ≤ X < 5%)” and the “UN … (percent probability)” value is “+++ (25% ≤ X < 50%)”. Besides, the “XG: anxiogenic (percent probability)” value is reported as “+ (LOQ ≤ X < 5%)”.
Consider `CCC(C)N1C2CC(C)CC1c1ccccc12` (stereo not drawn) [Compound 37, 12-(Butan-2-yl)-10-methyl-12-azatricyclo[6.3.1.0^2,7]dodeca-2,4,6-triene hydrochloride], for which the minimal effective dose fell in the range of 1 to 10 mg/kg, the “AD: antidepressant (percent probability)” value is on record as “++ (5% ≤ X < 25%)”, the “AG: analgesic (percent probability)” value was “++ (5% ≤ X < 25%)” and the “AP: antipsychotic (percent probability)” value was “+ (LOQ ≤ X < 5%)”. For the same molecule, the “AX: anxiolytic (percent probability)” value was “+++ (25% ≤ X < 50%)”, the “CE: cognitive enhancer (percent probability)” value is on record as “+ (LOQ ≤ X < 5%)”, the “HA: hallucinogenic (percent probability)” value is on record as “+ (LOQ ≤ X < 5%)” and the “MS … (percent probability)” value is “+ (LOQ ≤ X < 5%)”. The “PS (percent probability)” value was “++ (5% ≤ X < 25%)”, the “SD … (percent probability)” value is listed as “+ (LOQ ≤ X < 5%)”, the “SE: side effects (percent probability)” value is “+ (LOQ ≤ X < 5%)” and the “UN … (percent probability)” value is given as “+ (LOQ ≤ X < 5%)”. The “XG: anxiogenic (percent probability)” value was “+ (LOQ ≤ X < 5%)”.
